Source: patent publication US6737383B1, “Herbicidal oxadiazolidines” (priority 1999, dated 2004)

Legend:
wild oat = assay: Test B pre/postemergence wild oat; format: in vivo, Avena fatua
Outline: (§1)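 Herbicidal effect was estimated by eye on a ten-point control scale after plants spent twelve to sixteen days in a greenhouse following soil or foliar treatment. Foliar sprays targeted plants at one to four leaves; all doses were formulated in a non-phytotoxic solvent with surfactant.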

soybean = assay: Test B pre/postemergence soybean; format: in vivo, Glycine max
Outline: as §1

sugar beet = assay: Test B pre/postemergence sugar beet; format: in vivo, Beta vulgaris
Outline: as §1

blackgrass = assay: Test B pre/postemergence blackgrass; format: in vivo, Alopecurus myosuroides
Outline: as §1

purple nutsedge = assay: Test B pre/postemergence purple nutsedge; format: in vivo, Cyperus rotundus
Outline: as §1

morningglory = assay: Test B pre/postemergence morningglory; format: in vivo, Ipomoea hederacea
Outline: as §1

giant foxtail = assay: Test B pre/postemergence giant foxtail; format: in vivo, Setaria faberii
Outline: as §1

pigweed = assay: Test B pre/postemergence pigweed; format: in vivo, Amaranthus retroflexus
Outline: as §1

velvetleaf = assay: Test B pre/postemergence velvetleaf; format: in vivo, Abutilon theophrasti
Outline: as §1

bedstraw = assay: Test B pre/postemergence bedstraw; format: in vivo, Galium aparine
Outline: as §1

rice = assay: Test B flood test rice; format: in vivo, Oryza sativa
Outline: (§2)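 Each value is a visual injury score relative to controls, with 10 meaning complete control and 0 no effect. Evaluation took place twelve to sixteen days after the 2-leaf-stage plants were treated and kept in the greenhouse.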

duck salad = assay: Test B flood test duck salad; format: in vivo, Heteranthera limosa
Outline: as §2

bamyardgrass = assay: Test B flood test barnyardgrass; format: in vivo, Echinochloa crus-galli
Outline: as §2

wheat = assay: Test B pre/postemergence wheat; format: in vivo, Triticum aestivum
Outline: as §1

smallflower flatsedge = assay: Test B flood test smallflower flatsedge; format: in vivo, Cyperus difformis
Outline: as §2

rape = assay: Test B pre/postemergence rape; format: in vivo, Brassica napus
Outline: as §1

[1] = Preemergence, Rate 62 g/ha, scale of 0 to 10 where 0 is no effect and 10 is complete control
[2] = Preemergence, Rate 250 g/ha, scale 0 to 10, 0 is no effect, 10 is complete control
[3] = Preemergence, Rate 500 g/ha, scale of 0 to 10 where 0 is no effect and 10 is complete control
[4] = Rate 62 g/ha, Postemergence, scale of 0 to 10 where 0 is no effect and 10 is complete control
[5] = Rate 125 g/ha, Postemergence, scale 0 to 10
[6] = Rate 125 g/ha, Preemergence, scale of 0 to 10 where 0 is no effect and 10 is complete control
[7] = Rate 500 g/ha, Postemergence, scale 0 to 10
[8] = Rate 62 g/ha, headed Pre-emergence (flood test species), scale 0 to 10 (0 no effect, 10 complete control)
[9] = Rate 125 g/ha, Pre-emergence, flood test species, scale 0 to 10 where 0 is no effect and 10 is complete control
[10] = Rate 250 g/ha, Pre-emergence, flood-test species, scale 0 to 10, 0 is no effect, 10 is complete control
[11] = Rate 500 g/ha, Pre-emergence, flood test species, scale 0 to 10 (0 no effect, 10 complete control)

CC(C)N(C(=O)n1oc(=O)n(CC=Cc2ccccc2)c1=O)c1ccc(F)cc1 [Compound 210]
Wild oats plant response rating (wild oat; [1]): 0
Wild oats plant response rating (wild oat; [2]): 2
Plant response rating, Wild oats (wild oat; [3]): 2
Wild oats plant response rating (wild oat; [4]): 0
Wild oats plant response rating (wild oat; [5]): 0
Wild oats plant response rating (wild oat; [6]): 0
Plant response rating (0 to 10; 0 is no effect, 10 is complete control), Wild oats (wild oat; Rate 250 g/ha, Postemergence): 0
Soybean plant response rating (soybean; [1]): 0
Soybean plant response rating (soybean; [2]): 0
Plant response rating, Soybean (soybean; [3]): 0
Soybean plant response rating (soybean; [4]): 1
Soybean plant response rating (soybean; [5]): 1
Soybean plant response rating (soybean; [6]): 0
Plant response rating (0 to 10; 0 is no effect, 10 is complete control), Soybean (soybean; Rate 250 g/ha, Postemergence): 1
Soybean plant response rating (soybean; [7]): 3
Sugarbeets plant response rating (sugar beet; [1]): 0
Sugarbeets plant response rating (sugar beet; [2]): 0
Plant response rating, Sugarbeets (sugar beet; [3]): 3
Sugarbeets plant response rating (sugar beet; [4]): 0
Sugarbeets plant response rating (sugar beet; [5]): 0
Sugarbeets plant response rating (sugar beet; [6]): 0
Plant response rating (0 to 10; 0 is no effect, 10 is complete control), Sugarbeets (sugar beet; Rate 250 g/ha, Postemergence): 0
Sugarbeets plant response rating (sugar beet; [7]): 4
Blackgrass plant response rating (blackgrass; [1]): 0
Blackgrass plant response rating (blackgrass; [2]): 0
Plant response rating, Blackgrass (blackgrass; [3]): 4
Blackgrass plant response rating (blackgrass; [4]): 0
Blackgrass plant response rating (blackgrass; [5]): 0
Blackgrass plant response rating (blackgrass; [6]): 0
Plant response rating (0 to 10; 0 is no effect, 10 is complete control), Blackgrass (blackgrass; Rate 250 g/ha, Postemergence): 0
Blackgrass plant response rating (blackgrass; [7]): 2
Nutsedge plant response rating (purple nutsedge; [1]): 0
Nutsedge plant response rating (purple nutsedge; [2]): 0
Plant response rating, Nutsedge (purple nutsedge; [3]): 0
Nutsedge plant response rating (purple nutsedge; [4]): 0
Nutsedge plant response rating (purple nutsedge; [5]): 0
Nutsedge plant response rating (purple nutsedge; [6]): 0
Plant response rating (0 to 10; 0 is no effect, 10 is complete control), Nutsedge (purple nutsedge; Rate 250 g/ha, Postemergence): 0
Nutsedge plant response rating (purple nutsedge; [7]): 0
Morningglory plant response rating (morningglory; [1]): 0
Morningglory plant response rating (morningglory; [2]): 0
Plant response rating, Morningglory (morningglory; [3]): 0
Morningglory plant response rating (morningglory; [4]): 2
Morningglory plant response rating (morningglory; [5]): 2
Morningglory plant response rating (morningglory; [6]): 0
Plant response rating (0 to 10; 0 is no effect, 10 is complete control), Morningglory (morningglory; Rate 250 g/ha, Postemergence): 3
Morningglory plant response rating (morningglory; [7]): 7
Giant foxtail plant response rating (giant foxtail; [1]): 0
Giant foxtail plant response rating (giant foxtail; [2]): 3
Plant response rating, Giant foxtail (giant foxtail; [3]): 5
Giant foxtail plant response rating (giant foxtail; [4]): 0
Giant foxtail plant response rating (giant foxtail; [5]): 0
Giant foxtail plant response rating (giant foxtail; [6]): 0
Plant response rating (0 to 10; 0 is no effect, 10 is complete control), Giant foxtail (giant foxtail; Rate 250 g/ha, Postemergence): 0
Giant foxtail plant response rating (giant foxtail; [7]): 0
Redroot pigweed plant response rating (pigweed; [1]): 0
Redroot pigweed plant response rating (pigweed; [2]): 2
Plant response rating, Redroot pigweed (pigweed; [3]): 8
Redroot pigweed plant response rating (pigweed; [4]): 0
Redroot pigweed plant response rating (pigweed; [5]): 0
Redroot pigweed plant response rating (pigweed; [6]): 0
Plant response rating (0 to 10; 0 is no effect, 10 is complete control), Redroot pigweed (pigweed; Rate 250 g/ha, Postemergence): 2
Redroot pigweed plant response rating (pigweed; [7]): 6
Velvetleaf plant response rating (velvetleaf; [1]): 0
Velvetleaf plant response rating (velvetleaf; [2]): 0
Plant response rating, Velvetleaf (velvetleaf; [3]): 0
Velvetleaf plant response rating (velvetleaf; [4]): 0
Velvetleaf plant response rating (velvetleaf; [5]): 0
Velvetleaf plant response rating (velvetleaf; [6]): 0
Plant response rating (0 to 10; 0 is no effect, 10 is complete control), Velvetleaf (velvetleaf; Rate 250 g/ha, Postemergence): 2
Bedstraw plant response rating (bedstraw; [1]): 0
Bedstraw plant response rating (bedstraw; [2]): 0
Plant response rating, Bedstraw (bedstraw; [3]): 0
Bedstraw plant response rating (bedstraw; [4]): 0
Bedstraw plant response rating (bedstraw; [5]): 2
Bedstraw plant response rating (bedstraw; [6]): 0
Plant response rating (0 to 10; 0 is no effect, 10 is complete control), Bedstraw (bedstraw; Rate 250 g/ha, Postemergence): 4
Rice plant response rating (rice; [8]): 0
Rice plant response rating (rice; [9]): 0
Rice plant response rating (rice; [10]): 0
Rice plant response rating (rice; [11]): 0
Ducksalad plant response rating (duck salad; [8]): 0
Ducksalad plant response rating (duck salad; [9]): 0
Ducksalad plant response rating (duck salad; [10]): 0
Ducksalad plant response rating (duck salad; [11]): 0
Barnyardgrass plant response rating (bamyardgrass; [8]): 0
Barnyardgrass plant response rating (bamyardgrass; [9]): 0
Barnyardgrass plant response rating (bamyardgrass; [10]): 0
Barnyardgrass plant response rating (bamyardgrass; [11]): 0
Wheat plant response rating (wheat; [1]): 0
Wheat plant response rating (wheat; [2]): 0
Plant response rating, Wheat (wheat; [3]): 0
Wheat plant response rating (wheat; [4]): 0
Wheat plant response rating (wheat; [5]): 0
Wheat plant response rating (wheat; [6]): 0
Plant response rating (0 to 10; 0 is no effect, 10 is complete control), Wheat (wheat; Rate 250 g/ha, Postemergence): 0
S. Flatsedge plant response rating (smallflower flatsedge; [8]): 0
S. Flatsedge plant response rating (smallflower flatsedge; [9]): 0
S. Flatsedge plant response rating (smallflower flatsedge; [10]): 0
S. Flatsedge plant response rating (smallflower flatsedge; [11]): 0
Rape plant response rating (rape; [1]): 0
Rape plant response rating (rape; [2]): 0
Plant response rating, Rape (rape; [3]): 3
Rape plant response rating (rape; [4]): 0
Rape plant response rating (rape; [5]): 0
Rape plant response rating (rape; [6]): 0
Plant response rating (0 to 10; 0 is no effect, 10 is complete control), Rape (rape; Rate 250 g/ha, Postemergence): 0
Rape plant response rating (rape; [7]): 0
